Biological target: T1, NapT8 (Streptomyces sp. CNQ-525, UniProt A7KH30)
T1 sequence (A7KH30 1-297): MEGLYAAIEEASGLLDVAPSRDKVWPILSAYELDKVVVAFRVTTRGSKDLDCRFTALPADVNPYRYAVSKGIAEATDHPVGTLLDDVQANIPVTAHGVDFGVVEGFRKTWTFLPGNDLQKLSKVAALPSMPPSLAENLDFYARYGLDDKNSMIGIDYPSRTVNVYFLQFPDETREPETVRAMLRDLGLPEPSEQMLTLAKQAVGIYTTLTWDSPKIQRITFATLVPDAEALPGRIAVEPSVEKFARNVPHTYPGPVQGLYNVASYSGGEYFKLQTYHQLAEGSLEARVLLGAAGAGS
Assay: reversed-phase HPLC turnover assay
Assay type: biochemical
Conditions: 34 as prenyl acceptor; MgCl2

CC(C)=CCOP(=O)(O)OP(=O)(O)O [dimethylallyl pyrophosphate]
reversed-phase HPLC turnover assay: NapT8 was only active when the isoprenoid DMAPP was utilized
